Where two headings read alike, the source gives them in different places. Bounds are passed on as bounds.

One data set concerns HIV-1 strain NL4.3 WT. Put plainly: Drug washout, viral replication (RT activity in culture supernatant) of WT virus in MT-2 cells. It is filed as cell-based. The conditions noted are these: for Time WT viral replication remained inhibited after washout: drug at 20 times IC90, washout 3 days postinfection; for WT viral replication after washout: drug at 20 times IC90, 4 days after washout. As to the method: (§1) We then washed away the inhibitors 3 days postinfection and quantified the reverse transcriptase activity in the culture supernatant to evaluate viral growth as described on washout days 0, 4, and 8 ([10], [11]). […] Longer experiments would be required to further differentiate BIC and DTG in washout experiments using WT virus.
(§2) Replication was assessed by measuring RT activity in culture supernatant without and after drug washout. Bar graphs, mean ± SEM. Statistical significance of drug washout with drug control conditions were assessed by adjusted P value with Tukey’s test: *, <0.05; ***, <0.001; and ****, <0.0001. For the washout experiments, BIC and EVG were synthesized at Gilead Sciences, Inc., DTG was purchased from Toronto Research Chemicals (ON, Canada), and RAL was provided by Merck, Inc.

The target of data set [1] is T1, G140S+Q148H mutant HIV-1 IN-DNA complexes (Human immunodeficiency virus type 1 group M subtype B, UniProt P04585, G1287S/Q1295H). The conditions noted are these: for Apparent t1/2, G140S+Q148H: 37°C, single exponential decay. The procedure:
(§3) Data sets were analyzed using a single exponential decay equation as previously published for INSTIs ([3]).

The test system of the next data set is HIV-1 WT. Put plainly: Antiviral activity against WT HIV-1 in the MT-2 cell line. Type of data set: cell-based. Particulars: Human immunodeficiency virus 1, MT2. The source says:
TABLE 1 Structure and antiviral activity of INSTIs in the MT-2 cell line | column: Antiviral activity against HIV-1, EC50 (nM)^b (fold change) / WT

The test system of data set [2] is HIV-1 strain NL4.3 G140S+Q148H. Put plainly: Drug washout, viral replication (RT activity in culture supernatant) of G140S+Q148H virus in MT-2 cells. Particulars: for G140S+Q148H viral replication under constant drug pressure: drug at 20 times IC90, no washout. It is filed as cell-based. As to the method:
as §1, §2
The G140S+Q148H mutations cause varied degrees of resistance to INSTIs.

In the next data set the test system is HIV-1 G140S+Q148H. Put plainly: Antiviral activity against G140S+Q148H HIV-1 in the MT-2 cell line. Type of data set: cell-based. The conditions noted are these: for EC50: Human immunodeficiency virus 1, MT2; for Fold change of EC50, G140S+Q148H (reduced susceptibility): versus WT.
In data set [3] the test system is G140S+Q148H mutant HIV-1 IN-DNA complexes. The procedure:
as §3

Data set [4] has as its target T2, WT HIV-1 IN-DNA complexes (Human immunodeficiency virus type 1 group M subtype B, UniProt P04585). The procedure: as §3
The target of data set [5] is T1, G140S+Q148H mutant HIV-1 IN-DNA complexes. The conditions noted are these: values in square brackets; cited from earlier work.
Data set [6] has as its target T2, WT HIV-1 IN-DNA complexes. The conditions noted are these: cited from earlier work.

For `O=C(NCc1c(F)cc(F)cc1F)c1cn2c(c(O)c1=O)C(=O)N1[C@H]3CC[C@H](C3)O[C@@H]1C2` [BIC, bictegravir], the “Time WT viral replication remained inhibited after washout” value in the data set with HIV-1 strain NL4.3 WT was “at least 8 days”. The “Apparent t1/2, G140S+Q148H” value in data set [1] was 5.7 ± 0.4 h. Also, the concentration for a half-maximal effect (EC50) came to 1.5 ± 0.2 nM with HIV-1 WT and 3.1 ± 0.8 nM with HIV-1 G140S+Q148H. For the same molecule, in data set [2] (drug at 20 times IC90, after 8 days of washout), the “Suppression of the G140S+Q148H virus after washout” value is reported as > 80%. Also, the “G140S+Q148H viral replication under constant drug pressure” value in data set [2] is listed as “very low levels of replication”.
Consider `O=C(NCc1ccc(F)cc1F)c1cn2c(c(O)c1=O)C(=O)N1[C@H]3CC[C@H](C3)O[C@@H]1C2` [Compound 1], for which, in data set [3], the “Apparent t1/2, G140S+Q148H, fold change vs WT” value turned out to be 32 fold and the “koff, G140S+Q148H, fold change vs WT” value is on record as 0.03 fold. For the same molecule, in [4] (37°C, single exponential decay), the “Apparent t1/2, WT” value was 155 ± 25 h and the “koff, WT” value is given as 1.3 ± 0.2 s^−1 (×10^−6). Besides, in data set [1], the “Apparent t1/2, G140S+Q148H” value amounted to 4.8 ± 0.2 h. For the same molecule, in the data set with HIV-1 WT, the EC50 was found to be 1.4 ± 0.5 nM. For the same molecule, in the data set on HIV-1 G140S+Q148H, the 50% effective concentration (EC50) was 4.5 ± 1.8 nM and the “Fold change of EC50, G140S+Q148H (reduced susceptibility)” value was 3.2 fold.
As for `O=C(NCc1c(F)cc(F)cc1F)c1cn2c(c(O)c1=O)C(=O)N1[C@@H]3CC[C@@H](C3)O[C@H]1C2` [Compound 2], the “Apparent t1/2, G140S+Q148H” value in data set [1] was found to be 1.7 ± 0.2 h. For the same molecule, the 50% effective concentration (EC50) in the data set with HIV-1 WT stood at 1.5 ± 0.5 nM; in the data set on HIV-1 G140S+Q148H, 11.1 ± 0.5 nM.
In the case of `C[C@@H]1CCO[C@H]2Cn3cc(C(=O)NCc4ccc(F)cc4F)c(=O)c(O)c3C(=O)N12` [DTG, dolutegravir], in the data set with HIV-1 strain NL4.3 WT, the “Time WT viral replication remained inhibited after washout” value is “at least 8 days”. Further, in data set [5], the “Apparent t1/2, G140S+Q148H” value is recorded as 3.3 h and the “koff, G140S+Q148H” value is reported as 58 ± 8 s^−1 (×10^−6). Also, in data set [3], the “Apparent t1/2, G140S+Q148H, fold change vs WT” value came out at 51 fold and the “koff, G140S+Q148H, fold change vs WT” value is 0.02 fold. In data set [4] (37°C, single exponential decay), the “Apparent t1/2, WT” value is reported as 96 ± 29 h and the “koff, WT” value was 2.2 ± 0.7 s^−1 (×10^−6). Also, the “Apparent t1/2, G140S+Q148H” value in data set [1] stood at 1.9 ± 0.2 h. The molecule also showed an EC50 with HIV-1 WT of 1.5 ± 0.2 nM. In addition, the “G140S+Q148H viral replication after washout” value in data set [2] (drug at 20 times IC90, 4 and 8 days after washout) was “significant viral replication”. Further, in data set [2], the “G140S+Q148H viral replication under constant drug pressure” value is recorded as “low replication”. Further, in the data set with HIV-1 G140S+Q148H, the half-maximal effective concentration (EC50) was 6.5 ± 1.2 nM and the “Fold change of EC50, G140S+Q148H (reduced susceptibility)” value was found to be 4.3 fold. In addition, in data set [6] (values in square brackets), the “Apparent t1/2, WT” value is listed as 71 h and the “koff, WT” value is on record as 2.7 ± 0.4 s^−1 (×10^−6).
Consider `COc1cc2c(cc1Cc1cccc(Cl)c1F)c(=O)c(C(=O)O)cn2[C@H](CO)C(C)C` [EVG, elvitegravir], for which the “WT viral replication after washout” value in the data set on HIV-1 strain NL4.3 WT is “detectable viral replication”. For the same molecule, the half-maximal effective concentration (EC50) turned out to be 2.1 ± 0.9 nM with HIV-1 WT and 868 ± 138 nM in the data set with HIV-1 G140S+Q148H.
Turning to `Cc1nnc(C(=O)NC(C)(C)c2nc(C(=O)NCc3ccc(F)cc3)c(O)c(=O)n2C)o1` [RAL, raltegravir], the “WT viral replication after washout” value in the data set with HIV-1 strain NL4.3 WT was “detectable viral replication”. Moreover, the “Apparent t1/2, G140S+Q148H” value in data set [5] was “ND [0.2] h”. The “koff, G140S+Q148H” value in data set [5] was “ND [1,130] s^−1 (×10^−6)”. The “koff, WT” value in data set [4] and in data set [6] was 21 ± 6 [22 ± 2] throughout. In addition, the “Apparent t1/2, WT” value in data set [4] (recombinant enzyme) and in data set [6] was 10 ± 2 [8.8] h each time. Besides, the “Binding to G140S+Q148H IN-DNA complexes for determination of dissociation kinetics” value in data set [1] is recorded as “insufficient level of binding”. Moreover, the half-maximal effective concentration (EC50) was determined as 9.4 ± 1.4 nM in the data set on HIV-1 WT and 2460 nM in the data set on HIV-1 G140S+Q148H.

For orientation: EC50 means the concentration needed to bring the measured effect to its halfway point.

Source of the values: publication PMC8092912 (Antimicrobial Agents and Chemotherapy, 2021).
